Results reported in US10166216B2 (Rigel Pharmaceuticals, Inc., priority 2006, dated 2019).

molecular target: Axl (Homo sapiens (Human), UniProt P30530); test: Phospho-Akt in-cell Western assay (Axl-antibody cross-linking stimulation); type: cell-based; conditions: inhibition of Axl activity, Hela cells, phospho-Akt readout; Table 1, formula (Ia1)
Description: The working solution: dilute the stock 1:20 with PBS immediately before use. • 10% SDS: working solution: 5% SDS (sodium dodecylsulfate), diluted in PBS Methods: Day 1:
A 96 well TC (tissue culture treated) plate was coated with 10 μg/mL poly-L-Lysine at 37° C. for 30 min, washed twice with PBS, and air-dried for 5 minutes before cells were added. Hela cells were seeded at 10,000 cells/well and the cells were starved in 100 μL starvation medium containing Axl/Fc for 24 hrs.
The cells were pre-treated with test compounds by adding 100 μL of 2× test compound to the starvation medium on the cells. The cells were incubated at 37° C. for 1 hr before stimulation.
The resulting mix was warmed to 37° C. 50 μL of 5× Axl 1st/2nd of antibody cluster was added to the cells and the cells were incubated at 37° C. for 5 min.
After 5 minutes stimulation, the plate was flicked to remove medium and the plate was tapped onto paper towels. Formaldehyde (4.0% in PBS, 100 μL) was added to fix the cells and the cells were incubated at ambient temperature for 20 min without shaking.
The cells were washed with a plate washer buffer to remove the formaldehyde solution. The plate was flicked to removed excess wash buffer and tapped onto paper towels. Quenching buffer (100 μL) was added to each well and the cells were incubated at ambient temperature for 20 minutes without shaking.
The cells were washed with a plate washer buffer to remove the quenching buffer. Blocking buffer (100 μL) was added and the cells were incubated at ambient temperature for at least an hour with gentle shaking.
The cells were washed with a plate washer buffer and diluted primary antibody (50 μL) was added to each well (blocking buffer was added to the negative control wells instead). The plates were incubated overnight at 4° C. with gentle shaking.
The wash buffer was removed, diluted secondary antibody (100 μL) was added, and the cells were incubated at ambient temperature for 1 hour with gentle shaking. During the incubation, the chemiluminescent reagent was brought to ambient temperature.
The secondary antibody was removed by washing the cells 1× with wash buffer, 1× with PBS by plate washer. The PBS was removed from the plate and the chemiluminescent reagent (80 μL: 40 μL A and 40 μL B) was added to each well at ambient temperature.
The resulting chemiluminescence was read with a Luminomitor within 10 minutes to minimize changes in signal intensity. […] The plate was tapped onto paper towels to remove excess liquid from wells and air-dried at ambient temperature for 5 minutes.
Crystal Violet working solution (60 μL) was added to each well and the cells were incubated at ambient temperature for 30 min. The crystal violet solution was removed, and the wells were rinsed with PBS, then washed 3× with PBS (200 μL) for 5 minutes each.
5% SDS solution (70 μL) was added to each well and the cells were incubated on a shaker for 30 min at ambient temperature.
This relative cell number was then used to normalize each luminescence reading. […]

Chain of Axl (P30530 26-894): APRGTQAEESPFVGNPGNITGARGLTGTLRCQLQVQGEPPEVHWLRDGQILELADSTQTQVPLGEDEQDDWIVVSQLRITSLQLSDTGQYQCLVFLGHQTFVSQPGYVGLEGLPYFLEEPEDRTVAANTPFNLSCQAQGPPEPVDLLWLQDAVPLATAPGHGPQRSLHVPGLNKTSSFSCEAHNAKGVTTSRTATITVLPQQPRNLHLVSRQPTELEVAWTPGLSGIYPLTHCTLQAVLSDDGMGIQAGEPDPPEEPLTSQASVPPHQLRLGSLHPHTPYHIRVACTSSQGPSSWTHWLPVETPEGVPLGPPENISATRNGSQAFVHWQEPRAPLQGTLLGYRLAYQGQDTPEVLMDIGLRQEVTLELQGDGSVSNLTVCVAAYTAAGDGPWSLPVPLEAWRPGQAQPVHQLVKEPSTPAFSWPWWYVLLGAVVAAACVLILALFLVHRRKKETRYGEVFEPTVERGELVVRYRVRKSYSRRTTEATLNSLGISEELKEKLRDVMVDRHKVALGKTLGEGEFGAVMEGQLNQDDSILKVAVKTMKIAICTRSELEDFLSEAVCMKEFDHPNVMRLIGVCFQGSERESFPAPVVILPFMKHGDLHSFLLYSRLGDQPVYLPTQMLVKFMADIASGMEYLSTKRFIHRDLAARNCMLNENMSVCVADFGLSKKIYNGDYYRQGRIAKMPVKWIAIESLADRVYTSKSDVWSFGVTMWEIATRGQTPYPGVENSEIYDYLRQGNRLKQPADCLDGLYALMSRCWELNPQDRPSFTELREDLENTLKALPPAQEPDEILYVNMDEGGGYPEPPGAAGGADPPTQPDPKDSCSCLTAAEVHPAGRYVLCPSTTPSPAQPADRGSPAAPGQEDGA

Row | IC50 | Compound
1 | > 20 µM | Nc1nc(Nc2ccc(OCCN3CCCCC3)cc2)nn1-c1ccccc1 [Compound 1, 1-phneyl-N^3-(4-(2-(piperidin-1-yl)ethoxy)phenyl)-1H-1,2,4-triazole-3,5-diamine]
2 | < 1 µM | Nc1nc(Nc2ccc(OCCN3CCCC3)c(Cl)c2)nn1-c1ccccn1 [Compound 4, N^3-(3-chloro-4-(2-(pyrrolidin-1-yl)ethoxy)phenyl)-1-(pyridin-2-yl)-1H-1,2,4-triazole-3,5-diamine]
3 | > 20 µM | CNc1nc(Nc2ccc(OCCN3CCCC3)cc2)nn1-c1ccccn1 [Compound 6, N^5-methyl-1-(pyridin-2-yl)-N^3-(4-(2-(pyrrolidin-1-yl)ethoxy)phenyl)-1H-1,2,4-triazole-3,5-diamine]
4 | > 20 µM | Nc1nc(Nc2ccc(OCCN3CCCC3)cc2)nn1-c1ccc(S(N)(=O)=O)cc1 [Compound 8, 4-(5-amino-3-(4-(2-(pyrrolidin-1-yl)ethoxy)phenylamino)-1H-1,2,4-triazol-1-yl)benzenesulfonamide]
5 | < 1 µM | Nc1nc(Nc2ccc(OCCN3CCCC3)cc2)nn1-c1cnc2ccccc2n1 [Compound 9, N^3-(4-(2-(pyrrolidin-1-yl)ethoxy)phenyl)-1-(quinoxalin-2-yl)-1H-1,2,4-triazole-3,5-diamine]
6 | > 20 µM | Nc1nc(Nc2ccc(OCCN3CCCCC3)cc2)nn1-c1ccnc(Cl)c1 [Compound 10, 1-(2-chloropyridin-4-yl)-N^3-(4-(2-(piperidin-1-yl)ethoxy)phenyl)-1H-1,2,4-triazole-3,5-diamine]
7 | > 20 µM | Nc1nc(Nc2ccc(OCCN3CCCC3)cc2)nn1-c1nc2ccccc2s1 [Compound 11, 1-(benzo[d]thiazol-2-yl)-N^3-(4-(2-(pyrrolidin-1-yl)ethoxy)phenyl)-1H-1,2,4-triazole-3,5-diamine]
8 | 1 to 10 µM | Nc1nc(Nc2ccc(OCCN3CCCC3)cc2)nn1-c1cnccn1 [Compound 13, 1-(pyrazin-2-yl)-N^3-(4-(2-(pyrrolidin-1-yl)ethoxy)phenyl)-1H-1,2,4-triazole-3,5-diamine]
9 | > 20 µM | Cn1c(-n2nc(Nc3ccc(OCCN4CCCC4)cc3)nc2N)nc2ccccc21 [Compound 14, 1-(1-methyl-1H-benzo[d]imidazol-2-yl)-N^3-(4-(2-(pyrrolidin-1-yl)ethoxy)phenyl)-1H-1,2,4-triazole-3,5-diamine]
10 | > 20 µM | Nc1nc(Nc2ccc(OCCN3CCCCC3)cc2)nn1-c1ccnc(N2CCOCC2)c1 [Compound 15, 1-(2-morpholinopyridin-4-yl)-N^3-(4-(2-(piperidin-1-yl)ethoxy)phenyl)-1H-1,2,4-triazole-3,5-diamine]
11 | 1 to 10 µM | Nc1nc(Nc2ccc(OCCN3CCCC3)cc2)nn1-c1cccc(Cl)n1 [Compound 16, 1-(6-chloropyridin-2-yl)-N^3-(4-(2-(pyrrolidin-1-yl)ethoxy)phenyl)-1H-1,2,4-triazole-3,5-diamine]
12 | 1 to 10 µM | Nc1nc(Nc2ccc(OCCN3CCCC3)cc2)nn1-c1ccc(Cl)cn1 [Compound 17, 1-(5-chloropyridin-2-yl)-N^3-(4-(2-(pyrrolidin-1-yl)ethoxy)phenyl)-1H-1,2,4-triazole-3,5-diamine]
13 | > 20 µM | Nc1nc(Nc2ccc(OCCN3CCCC3)cc2)nn1-c1ncccc1Cl [Compound 18, 1-(3-chloropyridin-2-yl)-N^3-(4-(2-(pyrrolidin-1-yl)ethoxy)phenyl)-1H-1,2,4-triazole-3,5-diamine]
14 | < 1 µM | Nc1nc(Nc2ccc(OCCN3CCCCC3)cc2)nn1-c1cccc(Cl)n1 [Compound 19, 1-(6-chloropyridin-2-yl)-N^3-(4-(2-(piperidin-1-yl)ethoxy)phenyl)-1H-1,2,4-triazole-3,5-diamine]
15 | 10 to 20 µM | Nc1nc(Nc2ccc(OCCN3CCCCC3)cc2)nn1-c1cccc(N2CCOCC2)n1 [Compound 20, 1-(6-morpholinopyridin-2-yl)-N^3-(4-(2-(piperidin-1-yl)ethoxy)phenyl)-1H-1,2,4-triazole-3,5-diamine]
16 | < 1 µM | CC1CCCN1CCOc1ccc(Nc2nc(N)n(-c3cnc4ccccc4n3)n2)cc1 (stereo not drawn) [Compound 21, N^3-(4-(2-(2-methylpyrrolidin-1-yl)ethoxy)phenyl)-1-(quinoxalin-2-yl)-1H-1,2,4-triazole-3,5-diamine]
17 | > 20 µM | CC1CCCN1CCOc1ccc(Nc2nc(N)n(-c3nc4ccccc4s3)n2)cc1 (stereo not drawn) [Compound 22, 1-(benzo[d]thiazol-2-yl)-N^3-(4-(2-(2-methylpyrrolidin-1-yl)ethoxy)phenyl)-1H-1,2,4-triazole-3,5-diamine]
18 | > 20 µM | CC1CCCN1CCOc1ccc(Nc2nc(N)n(-c3nc4ccccc4n3C)n2)cc1 (stereo not drawn) [Compound 23, 1-(1-methyl-1H-benzo[d]imidazol-2-yl)-N^3-(4-(2-(2-methylpyrrolidin-1-yl)ethoxy)phenyl)-1H-1,2,4-triazole-3,5-diamine]
19 | > 20 µM | CC1CCCN1CCOc1ccc(Nc2nc(N)n(-c3nc4ccccc4[nH]3)n2)cc1 (stereo not drawn) [Compound 24, 1-(1H-benzo[d]imidazol-2-yl)-N^3-(4-(2-(2-methylpyrrolidin-1-yl)ethoxy)phenyl)-1H-1,2,4-triazole-3,5-diamine]
20 | < 1 µM | Nc1nc(Nc2ccc(OCCN3CCCC3)cc2)nn1-c1nncc2ccccc12 [Compound 25, 1-(phthalazin-1-yl)-N^3-(4-(2-(pyrrolidin-1-yl)ethoxy)phenyl)-1H-1,2,4-triazole-3,5-diamine]
21 | < 1 µM | Nc1nc(Nc2ccc(OCCN3CCCC3)cc2)nn1-c1cc(C(F)(F)F)ccn1 [Compound 26, N^3-(4-(2-(pyrrolidin-1-yl)ethoxy)phenyl)-1-(4-(trifluoromethyl)pyridin-2-yl)-1H-1,2,4-triazole-3,5-diamine]
22 | > 20 µM | CC1CCCN1CCOc1ccc(Nc2nc(N)n(-c3ccccc3F)n2)cc1 (stereo not drawn) [Compound 27, 1-(2-fluorophenyl)-N^3-(4-(2-(2-methylpyrrolidin-1-yl)ethoxy)phenyl)-1H-1,2,4-triazole-3,5-diamine]
23 | > 20 µM | Nc1nc(Nc2ccc(OCCN3CCCCC3)cc2)nn1-c1ccccc1F [Compound 28, 1-(2-fluorophenyl)-N^3-(4-(2-(piperidin-1-yl)ethoxy)phenyl)-1H-1,2,4-triazole-3,5-diamine]
24 | 1 to 10 µM | Nc1nc(Nc2ccc(OCCN3CCCC3)cc2)nn1-c1ncccc1C(F)(F)F [Compound 29, N^3-(4-(2-(pyrrolidin-1-yl)ethoxy)phenyl)-1-(3-(trifluoromethyl)pyridin-2-yl)-1H-1,2,4-triazole-3,5-diamine]
25 | 1 to 10 µM | COc1cccc(-n2nc(Nc3ccc(OCCN4CCCC4)cc3)nc2N)n1 [Compound 30, 1-(6-methoxypyridin-2-yl)-N^3-(4-(2-(pyrrolidin-1-yl)ethoxy)phenyl)-1H-1,2,4-triazole-3,5-diamine]
26 | > 20 µM | Nc1nc(Nc2ccc(OCCN3CCCC3)cc2)nn1-c1nc2ccccc2[nH]1 [Compound 31, 1-(1H-benzo[d]imidazol-2-yl)-N^3-(4-(2-(pyrrolidin-1-yl)ethoxy)phenyl)-1H-1,2,4-triazole-3,5-diamine]

same assay, conditions: inhibition of Axl activity, phospho-Akt in-cell Western assay

Row | IC50 | Compound
27 | > 20 µM | COc1cc2cnc(-n3nc(Nc4ccc(N5CCN([C@H]6C[C@@H]7CC[C@H]6C7)CC5)cc4)nc3N)nc2cc1OC (racemic) [Compound 182, 1-(6,7-dimethoxyquinazolin-2-yl)-N^3-(4-(4-((1S,2S,4R)-bicyclo[2.2.1]heptan-2-yl)-piperazin-1-yl)phenyl)-1H-1,2,4-triazole-3,5-diamine]
